Data on nine molecules can be found in patent US9023763B2, “Modification of trehalose-6-phosphate levels in plants” (Isis Innovation Limited, priority 2011, dated 2015).

Read-outs that look alike come from different tables or passages of the source.

Data set [1] in a line: In-planta uptake after feeding to roots of seedlings, quantified by HPLC/LCMS. It counts as in vivo, Arabidopsis thaliana. To be noted: for concentration at 72 h / uptake in μg/10 mg of seedling: protected T6P compounds, after 72 h (3 days), n = 3; for concentration at 72 h / Uptake % / uptake in μg/10 mg of seedling: Arabidopsis seedling; for concentration at 72 h: read-out: uptake in μg/10 mg of seedling; for in-planta uptake (in words): after 72 h; for Uptake %: proportion of compound fed taken up by the plant, 72 h. The protocol:
Aqueous solutions of each of Examples 1 to 4 were fed to roots of seedlings of Arabidopsis thaliana and after a certain period of time the aerial (shoot) part of seedling was harvested carefully and extracted in H2O:MeOH (1:1) under liquid nitrogen to get crude fresh plant extract. The crude fresh plant extract thus obtained was analysed by mass spec and using HPLC to quantify the amount of compound taken up.
An aqueous solution of NB-T6P (Example 1) was fed to the seedlings, at 1 mM final concentration, near to the root and uptake was monitored in freshly prepared extract after 24 h, 48 h and 72 h using both HPLC and mass technique.
The quantitative analysis of the compounds taken up into the plant was carried out using freshly prepared plant extract by LCMS and summarised data are given in Table 2.

Data set [2] in a line: In vitro deprotection under UV light and sunlight, followed by mass spectrometry/TLC and P NMR. It counts as physicochemical. To be noted: for deprotection time: 5 mM in phosphate buffer pH 7.4. The text has this: Two experimental techniques were chosen for studying the progress of deprotection experiments i.e. i) Mass spectroscopy and TLC (spot), and ii) P NMR. Progress of the reactions was monitored by looking for the disappearance of peak corresponding to protected compounds and appearance of peak corresponding to T6P. The structure of completely uncaged compound i.e. T6P was established by 1D and 2D NMR.
Both experimental techniques were very efficient and reproducible to analyse the deprotection experiments. Five millimolar solutions of Examples 1 to 4 were prepared in phosphate buffer (pH 7.4) and the resulting solution was exposed to different wavelengths of UV light and sunlight to monitor deprotection at different time intervals.
After successful synthesis of protected-G6P(1-OMe) compounds their deprotection was carried out under various wavelength and power of UV light.

Data set [3] relates to SnRK1. The data set is described as follows: SnRK1 assay (Plant Physiol. 2009, 149, 1860-1871). The format is biochemical. The protocol:
The compounds synthesised in Examples 1 to 4 were tested against the known target for T6P in vitro i.e. SnRK1, using the assay described in Plant Physiol. 2009, 149, 1860-1871.
T6P deprotected by treatment of NB-T6P (Example 1) under deprotection conditions of 125 W/365 nm radiation was included in SnRK1 assays (carried out in accordance with Plant Physiol. 2009, 149, 1860-1871) to determine its inhibition effect and compared to commercially available T6P from Sigma. The results are depicted in FIG. 3.

In data set [4] the test system is Arabidopsis thaliana. Briefly: Increased starch production in treated plants. The format is in vivo. As to conditions: 0.1 mM in the media. As for the experimental part: Pre-stratified Arabidopsis thaliana seeds were sown in sterile culture on 0.5 mL solid medium (0.5× Murashige and Skoog with Gamborg's vitamins, 0.5% agar) in 0.5 mL tubes pierced with a small hole in the bottom. Tubes were arrayed in polystyrene racks and floated in liquid medium without added sucrose in Phytatrays. Seedlings were grown under 12 hr days under fluorescent lights giving 250 μmo/m^2/s, and 23° C. day/18° C. night temperatures. At 16-20 days after sowing the liquid medium was removed and the tubes were sealed with electrician's tape. All plants were topped up with 0.5×MS medium with no sucrose. Plants were treated with compound example 3, or water by adding example 3 to a final concentration of 0.1 mM in the media. On the third day plants were subjected to growth lights supplemented with UV light (8 W UV bulb) from a Gelman transilluminator (Model 51438) at a distance of 6 cm for 8 h. Plants were allowed to recover for a further day and the aerial parts were harvested at the end of the day, weighed and frozen in liquid nitrogen. Starch was extracted according to published methods, converted to glucose and measured as nmol glucose/gram fresh weight (Nature Protocol 2006, 1, 1342). Results are depicted in FIG. 6.

[5] abbreviates: Arabidopsis thaliana, in vivo, 1 mM.

As for `COc1cc(COP(=O)(O)OCC2O[C@H](O[C@H]3OC(CO)[C@@H](O)C(O)C3O)C(O)C(O)[C@@H]2O)c([N+](=O)[O-])cc1OC` (some centres unmarked) [Example 4, Mono-DMNB-T6P], the concentration at 72 h in data set [1] (setting [5]) was determined as 360000 ng/g; in data set [1] (Arabidopsis thaliana, in vivo), 360000 ng/g. Moreover, the “in-planta uptake (in words)” value in data set [1] is “taken up by the plant”. For the same molecule, the Uptake % in data set [1] turned out to be 1%. Also, the deprotection time is 600 min in data set [2] (8 W/254 nm); 360 min in data set [2] (8 W/365 nm); 45 min in data set [2] (125 W/200-400 nm); 45 min in data set [2] (125 W/365 nm); 360 min in data set [2] (Sun light).

Take `COc1cc(COP(=O)(OCc2cc(OC)c(OC)cc2[N+](=O)[O-])OCC2O[C@H](O[C@H]3OC(CO)[C@@H](O)C(O)C3O)C(O)C(O)[C@@H]2O)c([N+](=O)[O-])cc1OC` (some centres unmarked) [Example 2, DMNB-T6P]: the concentration at 72 h came out at 318000 ng/g in data set [1] (setting [5]) and 318000 ng/g in data set [1] (Arabidopsis thaliana, in vivo). Also, in data set [1], the “in-planta uptake (in words)” value was “taken up by the plant”. The molecule further showed an Uptake % in data set [1] of 1%. The deprotection time is 600 min in data set [2] (8 W/254 nm); 600 min in data set [2] (8 W/365 nm); 60 min in data set [2] (125 W/200-400 nm); 60 min in data set [2] (125 W/365 nm); 480 min in data set [2] (Sun light).

Regarding `O=P(O)(O)OC[C@H]1O[C@H](O[C@H]2O[C@H](CO)[C@@H](O)[C@H](O)[C@H]2O)[C@H](O)[C@@H](O)[C@@H]1O` [Example T6P, trehalose-6-phosphate], the SnRK1 inhibition result in data set [3] (T6P obtained from deprotection of Example 1 (125 W/365 nm), 0.32 mM, FIG. 3) was “inhibits SnRK1 in the same way as commercially available T6P”; in data set [3] (in vitro, in duplicate, FIG. 1), “shows typical inhibition”.

Turning to `COC1OC(COP(=O)(OC(C)c2ccccc2[N+](=O)[O-])OC(C)c2ccccc2[N+](=O)[O-])C(O)C(O)C1O` (mixture of isomers) [NPE-G6P(1-OMe)], the “deprotection time of caged G6P(1-OMe)” value amounted to 2 h in data set [2] (8 W/254 nm); 2 h in data set [2] (8 W/365 nm); 0.75 h in data set [2] (125 W/200-400 nm); 1.25 h in data set [2] (125 W/365 nm); 10 h in data set [2] (Sun light).

For the molecule `COc1cc(COP(=O)(O)OC[C@H]2O[C@H](OC)[C@H](O)[C@@H](O)[C@@H]2O)c([N+](=O)[O-])cc1OC` [Mono-DMNB-G6P(1-OMe)], the “deprotection time of caged G6P(1-OMe)” value came to 10 h in data set [2] (8 W/254 nm); 10 h in data set [2] (8 W/365 nm); 1.25 h in data set [2] (125 W/200-400 nm); 1.25 h in data set [2] (125 W/365 nm); 8 h in data set [2] (Sun light).

Take `O=[N+]([O-])c1ccccc1COP(=O)(OCc1ccccc1[N+](=O)[O-])OCC1O[C@H](O[C@H]2OC(CO)[C@@H](O)C(O)C2O)C(O)C(O)[C@@H]1O` (some centres unmarked) [Example 1, NB-T6P]: in data set [1] (Arabidopsis thaliana, in vivo, 1 mM final concentration fed near the root, 24 h), the concentration at 24 h came out at 263000 ng/g. The concentration at 48 h in data set [1] (Arabidopsis thaliana, in vivo, 1 mM final concentration fed near the root, 48 h) is 605000 ng/g. In data set [1], this molecule showed an Uptake % of 14%. In addition, the “uptake in μg/10 mg of seedling” value in data set [1] is 26.39 μg/10 mg of seedling. For the same molecule, the deprotection time came to 240 min in data set [2] (8 W/254 nm); 360 min in data set [2] (8 W/365 nm); 15 min in data set [2] (125 W/200-400 nm); 30 min in data set [2] (125 W/365 nm); 360 min in data set [2] (Sun light).

Take `CO[C@H]1O[C@H](COP(=O)(OCc2ccccc2[N+](=O)[O-])OCc2ccccc2[N+](=O)[O-])[C@@H](O)[C@H](O)[C@H]1O` [NB-G6P(1-OMe)]: the “deprotection time of caged G6P(1-OMe)” value in data set [2] (8 W/254 nm) came out at 6 h; in data set [2] (8 W/365 nm) it was 8 h; in data set [2] (125 W/200-400 nm) it was 0.75 h; in data set [2] (125 W/365 nm), 1.25 h; in data set [2] (Sun light) it was 8 h.

As to `CC(OP(=O)(OCC1O[C@H](O[C@H]2OC(CO)[C@@H](O)C(O)C2O)C(O)C(O)[C@@H]1O)OC(C)c1ccccc1[N+](=O)[O-])c1ccccc1[N+](=O)[O-]` (some centres unmarked) [Example 3, NPE-T6P], in data set [1], the “in-planta uptake (in words)” value is “taken up by the plant”. Further, the Uptake % in data set [1] is reported as 18%. In addition, the “uptake in μg/10 mg of seedling” value in data set [1] was 66.0 μg/10 mg of seedling. Moreover, the “increase in amount of starch produced relative to concentration of T6P released in-planta” value in data set [4] (8 W UV for 8 h) is on record as “tenfold higher”. In addition, the “starch levels compared to plants treated with water only” value in data set [4] (growth lights plus 8 W UV bulb for 8 h on third day, harvested a day later, FIG. 6) is “significantly higher starch levels”. The deprotection time in data set [2] (8 W/254 nm) was 90 min; in data set [2] (8 W/365 nm), 90 min; in data set [2] (125 W/200-400 nm), 10 min; in data set [2] (125 W/365 nm), 20 min; in data set [2] (Sun light) it was 90 min.

`COc1cc(COP(=O)(OCc2cc(OC)c(OC)cc2[N+](=O)[O-])OC[C@H]2O[C@H](OC)[C@H](O)[C@@H](O)[C@@H]2O)c([N+](=O)[O-])cc1OC` [DMNB-G6P(1-OMe)]: the “deprotection time of caged G6P(1-OMe)” value in data set [2] (8 W/254 nm) amounted to 10 h; in data set [2] (8 W/365 nm) it was 10 h; in data set [2] (125 W/200-400 nm) it was 2 h; in data set [2] (125 W/365 nm), 2 h; in data set [2] (Sun light), 10 h.
